According to US20070292908A1, “Method for Detecting Streptococcus Agalactiae Using Alpha-Glucosidase Activity” (BIOMERIEUX, priority 2004, published 2007):

Tests used:
Streptococcus agalactiae [1] = assay: Number of strains detected as a function of the concentration of α-glucosidase substrate; type: cell-based; conditions: positive when I≧0.6, 8 strains
Description: The above protocol was repeated, with the exception that the concentration of enzymatic substrate was varied.
Table 2 below gives the number of strains detected (considered to be positive when I≧0.6) as a function of the concentration of substrate.

Streptococcus agalactiae [2] = assay: Detection of Streptococcus agalactiae strains on reaction media containing an α-glucosidase enzymatic substrate; type: cell-based; conditions: substrate 0.1 g/l; for intensity (I) of coloration: arbitrary scale 0 to 4
Description: The reaction media were prepared by mixing heart-brain extract (4.84 g/l; Solabia), meat infusion (1.96 g/l; Solabia), biothione (1 g/l; Solabia), biotrypcase (7.2 g/l; Solabia), sodium carbonate (0.3 g/l; VWR), sodium pyruvate (2 g/l; Fluka), HEPES buffer (0.4 g/l; Sigma), lactalbumin peptone (2 g/l; DMV), glucose (1 g/l; Merck), American agar (2 g/l; Sobigel) and European agar (12 g/l; Roko).
The media were then poured into a Petri dish for subsequent inoculation with bacterial strains.
Eight Streptococcus agalactiae strains derived from the applicant's collection, suspended in physiological saline, were inoculated so as to give isolated colonies on each of the media. The dishes were then incubated at 37° C. for 48 hours. The colonies formed are examined visually after 18, 24 and more than 40 hours of incubation. The coloration of these colonies, the growth and also the intensity of this coloration were noted.
The results are given in table 1 below and are expressed: • in terms of growth (G) with the size being indicated in mm, • in terms of intensity (1) of coloration based on an arbitrary scale ranging from 0 to 4, 0 corresponding to an absence of activity and 4 corresponding to the presence of a very intense coloration, • in terms of color (Co) with T=turquoise, R=pink or red, Gr=green, Mg=magenta, • according to the incubation time in hours (T).

With “5-bromo-4-chloro-3-indolyl-N-methyl-α-D-glucopyranoside [GreenA-alpha-Glu]” the “number of strains detected” value (Streptococcus agalactiae [1]; substrate 100 mg/l, incubation 24 h) was 6/8, the “number of strains detected” value (Streptococcus agalactiae [1]; substrate 100 mg/l, incubation 48 h) was 8/8 and the “number of strains detected” value (Streptococcus agalactiae [1]; substrate 200 mg/l, incubation 24 h) was 7/8. For the same substance, the “number of strains detected” value (Streptococcus agalactiae [1]; substrate 200 mg/l, incubation 48 h) was 8/8, the “number of strains detected” value (Streptococcus agalactiae [1]; substrate 300 mg/l, incubation 24 h) was 7/8 and the “number of strains detected” value (Streptococcus agalactiae [1]; substrate 300 mg/l, incubation 48 h) was 7/8. For the same substance, the “intensity (I) of coloration” value (Streptococcus agalactiae [2]; strain 0008200, 18 h) was 0.5, the “growth (G), size” value (Streptococcus agalactiae [2]; strain 0008200, 18 h incubation) was 0.7 mm and the “intensity (I) of coloration” value (Streptococcus agalactiae [2]; strain 0008200, 24 h) was 0.8. The “growth (G), size” value (Streptococcus agalactiae [2]; strain 0008200, 24 h incubation) was 0.7 mm, the “intensity (I) of coloration” value (Streptococcus agalactiae [2]; strain 0008200, >40 h) was 2 and the “growth (G), size” value (Streptococcus agalactiae [2]; strain 0008200, >40 h incubation) was 0.7 mm. For the same substance, the “intensity (I) of coloration” value (Streptococcus agalactiae [2]; strain 0008206, 18 h) was 0.6, the “growth (G), size” value (Streptococcus agalactiae [2]; strain 0008206, 18 h incubation) was 0.7 mm and the “intensity (I) of coloration” value (Streptococcus agalactiae [2]; strain 0008206, 24 h) was 1. The “growth (G), size” value (Streptococcus agalactiae [2]; strain 0008206, 24 h incubation) was 0.7 mm, the “intensity (I) of coloration” value (Streptococcus agalactiae [2]; strain 0008206, >40 h) was 2 and the “growth (G), size” value (Streptococcus agalactiae [2]; strain 0008206, >40 h incubation) was 0.8 mm. The “intensity (I) of coloration” value (Streptococcus agalactiae [2]; strain 0101060, 18 h) was 0.8, the “growth (G), size” value (Streptococcus agalactiae [2]; strain 0101060, 18 h incubation) was 0.3 mm and the “intensity (I) of coloration” value (Streptococcus agalactiae [2]; strain 0101060, 24 h) was 1.7. The “growth (G), size” value (Streptococcus agalactiae [2]; strain 0101060, 24 h incubation) was 0.4 mm, the “intensity (I) of coloration” value (Streptococcus agalactiae [2]; strain 0101060, >40 h) was 3.5 and the “growth (G), size” value (Streptococcus agalactiae [2]; strain 0101060, >40 h incubation) was 0.5 mm. For the same substance, the “intensity (I) of coloration” value (Streptococcus agalactiae [2]; strain 7611003, 18 h) was 2, the “growth (G), size” value (Streptococcus agalactiae [2]; strain 7611003, 18 h incubation) was 1 mm and the “intensity (I) of coloration” value (Streptococcus agalactiae [2]; strain 7611003, 24 h) was 2. For the same substance, the “growth (G), size” value (Streptococcus agalactiae [2]; strain 7611003, 24 h incubation) was 1.3 mm, the “intensity (I) of coloration” value (Streptococcus agalactiae [2]; strain 7611003, >40 h) was 3 and the “growth (G), size” value (Streptococcus agalactiae [2]; strain 7611003, >40 h incubation) was 1.7 mm. For the same substance, the “growth (G), size” value (Streptococcus agalactiae [2]; strain 7701031, 18 h incubation) was 0.5 mm, the “intensity (I) of coloration” value (Streptococcus agalactiae [2]; strain 7701031, 24 h) was 0.3 and the “growth (G), size” value (Streptococcus agalactiae [2]; strain 7701031, 24 h incubation) was 0.7 mm. The “intensity (I) of coloration” value (Streptococcus agalactiae [2]; strain 7701031, >40 h) was 0.8, the “growth (G), size” value (Streptococcus agalactiae [2]; strain 7701031, >40 h incubation) was 1.5 mm and the “intensity (I) of coloration” value (Streptococcus agalactiae [2]; strain 7702055, 18 h) was 1. The “growth (G), size” value (Streptococcus agalactiae [2]; strain 7702055, 18 h incubation) was 0.7 mm, the “intensity (I) of coloration” value (Streptococcus agalactiae [2]; strain 7702055, 24 h) was 2 and the “growth (G), size” value (Streptococcus agalactiae [2]; strain 7702055, 24 h incubation) was 0.8 mm. The “intensity (I) of coloration” value (Streptococcus agalactiae [2]; strain 7702055, >40 h) was 3, the “growth (G), size” value (Streptococcus agalactiae [2]; strain 7702055, >40 h incubation) was 1.7 mm and the “intensity (I) of coloration” value (Streptococcus agalactiae [2]; strain 8709013, 18 h) was 0.5. For the same substance, the “growth (G), size” value (Streptococcus agalactiae [2]; strain 8709013, 18 h incubation) was 0.4 mm, the “intensity (I) of coloration” value (Streptococcus agalactiae [2]; strain 8709013, 24 h) was 1 and the “growth (G), size” value (Streptococcus agalactiae [2]; strain 8709013, 24 h incubation) was 0.5 mm. The “intensity (I) of coloration” value (Streptococcus agalactiae [2]; strain 8709013, >40 h) was 2.7, the “growth (G), size” value (Streptococcus agalactiae [2]; strain 8709013, >40 h incubation) was 0.7 mm and the “intensity (I) of coloration” value (Streptococcus agalactiae [2]; strain 8904053, 18 h) was 0.5. The “growth (G), size” value (Streptococcus agalactiae [2]; strain 8904053, 18 h incubation) was 0.7 mm, the “intensity (I) of coloration” value (Streptococcus agalactiae [2]; strain 8904053, 24 h) was 0.8 and the “growth (G), size” value (Streptococcus agalactiae [2]; strain 8904053, 24 h incubation) was 0.7 mm. The “intensity (I) of coloration” value (Streptococcus agalactiae [2]; strain 8904053, >40 h) was 2.3 and the “growth (G), size” value (Streptococcus agalactiae [2]; strain 8904053, >40 h incubation) was 1 mm.
